The experiment has as its target Bifunctional purine biosynthesis protein ATIC (Homo sapiens, UniProt P31939). Put plainly: Enzyme Activity Assays. As to the method:
Enzyme activity assays of recombinant hGAR Tfase and recombinant hAICAR Tfase were performed as previously described. Kinetics of the enzyme reactions were monitored for 2 min after reaction initiation.

Bounds are passed on as bounds.

Bifunctional purine biosynthesis protein ATIC, sequence (P31939 whole entry): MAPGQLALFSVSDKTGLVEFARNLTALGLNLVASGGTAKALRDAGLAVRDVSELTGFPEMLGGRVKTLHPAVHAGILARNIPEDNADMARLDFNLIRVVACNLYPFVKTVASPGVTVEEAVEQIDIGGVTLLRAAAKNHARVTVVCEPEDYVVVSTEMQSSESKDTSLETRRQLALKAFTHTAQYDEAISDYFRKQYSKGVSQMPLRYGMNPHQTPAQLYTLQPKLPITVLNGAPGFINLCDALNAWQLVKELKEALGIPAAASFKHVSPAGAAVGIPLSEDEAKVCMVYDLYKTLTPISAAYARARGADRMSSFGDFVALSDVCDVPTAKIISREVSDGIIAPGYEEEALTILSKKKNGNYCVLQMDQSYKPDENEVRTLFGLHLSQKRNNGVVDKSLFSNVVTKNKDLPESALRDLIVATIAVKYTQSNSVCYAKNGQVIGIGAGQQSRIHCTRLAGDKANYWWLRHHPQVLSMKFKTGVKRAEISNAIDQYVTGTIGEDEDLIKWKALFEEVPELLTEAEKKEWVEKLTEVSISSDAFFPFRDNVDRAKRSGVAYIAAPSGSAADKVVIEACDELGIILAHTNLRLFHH

On to `Nc1nc2c(c(=O)[nH]1)C[C@@H](CCc1ccc(C(=O)NC(CCC(=O)O)C(=O)O)cc1)CN2` (stereo partly specified) [Lometrexol (3)], for which the Ki is greater than 100 µM.

The term Ki denotes the dissociation constant of the complex between target and ligand, obtained from inhibition or displacement.

The values are drawn from BindingDB's records for doi:10.1021/bi4005182 (The Scripps Research Institute, 2013).
